The record followed here is PMC7339168 (Journal of Cellular and Molecular Medicine, 2020).

Usually IC50 stands for the point on the concentration scale where inhibition reaches its midpoint. A low value points to greater potency in that assay. One may read the Ki as a measure of affinity in units of concentration, obtained from inhibition or displacement. The low end stands for a stronger hold on the target, the high end for a looser hold on the target. One may read the Km as the concentration of substrate that gives half-maximal velocity.

The target in one assay is TYK2 (Homo sapiens, UniProt P29597). Kind of assay: radiometric KinaseProfiler kinase assay, […] ATP. The format is biochemical.
The next assay concerns the target JAK1 (Homo sapiens, UniProt P23458). Kind of assay: radiometric KinaseProfiler kinase assay, […] ATP. The format is biochemical.
Assay [1] deals with T1, JAK3 (Homo sapiens, UniProt P52333).
T1 sequence (P52333 1-1124): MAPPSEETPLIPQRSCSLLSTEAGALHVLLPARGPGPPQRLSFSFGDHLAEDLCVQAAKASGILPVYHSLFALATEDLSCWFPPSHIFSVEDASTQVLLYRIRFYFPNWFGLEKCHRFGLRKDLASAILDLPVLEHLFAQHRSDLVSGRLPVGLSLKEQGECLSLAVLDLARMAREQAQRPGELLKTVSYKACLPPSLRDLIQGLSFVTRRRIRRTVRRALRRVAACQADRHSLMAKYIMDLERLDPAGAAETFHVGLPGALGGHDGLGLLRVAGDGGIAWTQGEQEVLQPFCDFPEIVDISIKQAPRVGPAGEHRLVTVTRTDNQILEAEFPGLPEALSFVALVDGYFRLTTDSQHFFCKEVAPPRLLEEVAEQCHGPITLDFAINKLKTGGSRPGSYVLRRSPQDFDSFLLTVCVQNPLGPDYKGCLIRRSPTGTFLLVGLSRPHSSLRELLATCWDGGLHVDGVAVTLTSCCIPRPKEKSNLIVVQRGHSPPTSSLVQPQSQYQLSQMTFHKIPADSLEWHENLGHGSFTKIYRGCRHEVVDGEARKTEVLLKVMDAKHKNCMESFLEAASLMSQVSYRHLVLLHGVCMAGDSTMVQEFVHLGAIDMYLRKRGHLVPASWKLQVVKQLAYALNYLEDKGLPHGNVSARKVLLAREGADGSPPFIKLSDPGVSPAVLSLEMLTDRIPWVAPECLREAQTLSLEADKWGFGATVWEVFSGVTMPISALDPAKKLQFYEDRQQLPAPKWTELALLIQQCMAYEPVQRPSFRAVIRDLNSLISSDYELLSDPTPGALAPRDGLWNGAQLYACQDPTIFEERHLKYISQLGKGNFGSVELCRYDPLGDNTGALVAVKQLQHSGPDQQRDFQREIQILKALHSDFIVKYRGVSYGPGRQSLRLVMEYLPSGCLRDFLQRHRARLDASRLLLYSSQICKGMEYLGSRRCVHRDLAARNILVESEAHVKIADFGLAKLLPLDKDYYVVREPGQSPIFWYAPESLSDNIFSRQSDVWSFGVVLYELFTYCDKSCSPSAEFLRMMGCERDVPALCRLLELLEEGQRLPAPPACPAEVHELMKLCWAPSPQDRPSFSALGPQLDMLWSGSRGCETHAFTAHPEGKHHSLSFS
Briefly: radiometric KinaseProfiler assay with ATP titration (Ki; IC50 […]); also JAK3 immunoprecipitate kinase assay. It counts as biochemical.

In the next assay the target is JAK2 (Homo sapiens, UniProt O60674). Kind of assay: radiometric KinaseProfiler kinase assay, […] ATP. The format is biochemical.
Assay [2] concerns the target T1, JAK3. Briefly: KinaseProfiler kinase assay, positive control. It counts as biochemical.
In assay [3] the target is T1, JAK3.

Sequence of JAK2 (O60674 whole entry): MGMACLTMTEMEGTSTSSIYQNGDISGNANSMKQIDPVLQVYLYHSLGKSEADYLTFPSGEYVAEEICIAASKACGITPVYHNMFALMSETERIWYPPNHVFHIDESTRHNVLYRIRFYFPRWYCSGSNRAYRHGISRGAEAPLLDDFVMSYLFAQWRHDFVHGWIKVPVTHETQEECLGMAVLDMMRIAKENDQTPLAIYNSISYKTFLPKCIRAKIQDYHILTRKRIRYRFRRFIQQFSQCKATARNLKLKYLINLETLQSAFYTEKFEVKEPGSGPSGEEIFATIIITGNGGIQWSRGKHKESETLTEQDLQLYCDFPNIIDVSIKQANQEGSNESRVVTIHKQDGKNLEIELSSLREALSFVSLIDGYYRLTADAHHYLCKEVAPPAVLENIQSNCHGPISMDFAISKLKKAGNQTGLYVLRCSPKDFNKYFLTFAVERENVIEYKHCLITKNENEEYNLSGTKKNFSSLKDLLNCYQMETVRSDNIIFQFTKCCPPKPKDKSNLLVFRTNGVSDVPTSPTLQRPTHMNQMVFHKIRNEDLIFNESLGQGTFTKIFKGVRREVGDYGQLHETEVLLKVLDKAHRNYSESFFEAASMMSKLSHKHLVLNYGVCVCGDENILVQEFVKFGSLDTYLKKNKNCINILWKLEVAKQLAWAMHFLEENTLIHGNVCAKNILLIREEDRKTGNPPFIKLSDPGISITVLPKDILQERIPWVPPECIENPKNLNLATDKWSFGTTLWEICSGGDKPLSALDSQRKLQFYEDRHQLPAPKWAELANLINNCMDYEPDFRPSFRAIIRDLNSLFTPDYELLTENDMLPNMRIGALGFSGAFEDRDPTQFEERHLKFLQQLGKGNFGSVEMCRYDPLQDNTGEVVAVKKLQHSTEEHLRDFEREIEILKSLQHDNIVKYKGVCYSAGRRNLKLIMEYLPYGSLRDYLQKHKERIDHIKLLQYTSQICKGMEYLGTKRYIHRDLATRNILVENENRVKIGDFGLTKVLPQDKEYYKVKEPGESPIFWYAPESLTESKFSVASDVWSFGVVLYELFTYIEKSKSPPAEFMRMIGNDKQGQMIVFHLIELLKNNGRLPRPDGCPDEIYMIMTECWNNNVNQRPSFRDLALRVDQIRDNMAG
Sequence of TYK2 (P29597 whole entry): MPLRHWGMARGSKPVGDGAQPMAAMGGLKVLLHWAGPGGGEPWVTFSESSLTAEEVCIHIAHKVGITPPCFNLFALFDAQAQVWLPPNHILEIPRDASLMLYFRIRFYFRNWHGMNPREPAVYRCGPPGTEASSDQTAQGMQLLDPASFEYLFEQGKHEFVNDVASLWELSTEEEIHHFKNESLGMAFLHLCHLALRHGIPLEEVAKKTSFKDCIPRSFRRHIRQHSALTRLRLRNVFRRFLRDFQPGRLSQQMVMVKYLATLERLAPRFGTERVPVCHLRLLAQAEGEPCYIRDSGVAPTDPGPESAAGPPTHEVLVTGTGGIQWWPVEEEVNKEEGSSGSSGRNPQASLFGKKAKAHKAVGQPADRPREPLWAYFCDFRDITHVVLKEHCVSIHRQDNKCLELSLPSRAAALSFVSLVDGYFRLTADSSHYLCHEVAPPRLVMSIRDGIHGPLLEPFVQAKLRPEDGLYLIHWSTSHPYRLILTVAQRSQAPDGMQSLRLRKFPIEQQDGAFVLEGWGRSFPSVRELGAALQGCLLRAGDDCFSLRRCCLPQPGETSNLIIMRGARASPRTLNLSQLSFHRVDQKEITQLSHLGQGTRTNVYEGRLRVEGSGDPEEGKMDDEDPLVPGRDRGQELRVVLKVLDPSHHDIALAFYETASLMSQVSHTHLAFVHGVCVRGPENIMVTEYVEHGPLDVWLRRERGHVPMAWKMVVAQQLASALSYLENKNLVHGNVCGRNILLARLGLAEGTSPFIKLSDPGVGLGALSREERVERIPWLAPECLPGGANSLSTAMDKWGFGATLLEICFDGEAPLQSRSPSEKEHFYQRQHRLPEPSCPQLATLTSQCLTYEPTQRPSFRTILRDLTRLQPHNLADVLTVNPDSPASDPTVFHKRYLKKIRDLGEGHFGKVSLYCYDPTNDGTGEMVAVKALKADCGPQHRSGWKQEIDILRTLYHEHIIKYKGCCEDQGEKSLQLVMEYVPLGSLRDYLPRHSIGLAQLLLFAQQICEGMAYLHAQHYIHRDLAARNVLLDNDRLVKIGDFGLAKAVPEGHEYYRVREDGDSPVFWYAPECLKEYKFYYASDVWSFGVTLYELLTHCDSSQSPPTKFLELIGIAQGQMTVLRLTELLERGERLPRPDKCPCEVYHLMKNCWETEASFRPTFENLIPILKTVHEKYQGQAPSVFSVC
Sequence of JAK1 (P23458 whole entry): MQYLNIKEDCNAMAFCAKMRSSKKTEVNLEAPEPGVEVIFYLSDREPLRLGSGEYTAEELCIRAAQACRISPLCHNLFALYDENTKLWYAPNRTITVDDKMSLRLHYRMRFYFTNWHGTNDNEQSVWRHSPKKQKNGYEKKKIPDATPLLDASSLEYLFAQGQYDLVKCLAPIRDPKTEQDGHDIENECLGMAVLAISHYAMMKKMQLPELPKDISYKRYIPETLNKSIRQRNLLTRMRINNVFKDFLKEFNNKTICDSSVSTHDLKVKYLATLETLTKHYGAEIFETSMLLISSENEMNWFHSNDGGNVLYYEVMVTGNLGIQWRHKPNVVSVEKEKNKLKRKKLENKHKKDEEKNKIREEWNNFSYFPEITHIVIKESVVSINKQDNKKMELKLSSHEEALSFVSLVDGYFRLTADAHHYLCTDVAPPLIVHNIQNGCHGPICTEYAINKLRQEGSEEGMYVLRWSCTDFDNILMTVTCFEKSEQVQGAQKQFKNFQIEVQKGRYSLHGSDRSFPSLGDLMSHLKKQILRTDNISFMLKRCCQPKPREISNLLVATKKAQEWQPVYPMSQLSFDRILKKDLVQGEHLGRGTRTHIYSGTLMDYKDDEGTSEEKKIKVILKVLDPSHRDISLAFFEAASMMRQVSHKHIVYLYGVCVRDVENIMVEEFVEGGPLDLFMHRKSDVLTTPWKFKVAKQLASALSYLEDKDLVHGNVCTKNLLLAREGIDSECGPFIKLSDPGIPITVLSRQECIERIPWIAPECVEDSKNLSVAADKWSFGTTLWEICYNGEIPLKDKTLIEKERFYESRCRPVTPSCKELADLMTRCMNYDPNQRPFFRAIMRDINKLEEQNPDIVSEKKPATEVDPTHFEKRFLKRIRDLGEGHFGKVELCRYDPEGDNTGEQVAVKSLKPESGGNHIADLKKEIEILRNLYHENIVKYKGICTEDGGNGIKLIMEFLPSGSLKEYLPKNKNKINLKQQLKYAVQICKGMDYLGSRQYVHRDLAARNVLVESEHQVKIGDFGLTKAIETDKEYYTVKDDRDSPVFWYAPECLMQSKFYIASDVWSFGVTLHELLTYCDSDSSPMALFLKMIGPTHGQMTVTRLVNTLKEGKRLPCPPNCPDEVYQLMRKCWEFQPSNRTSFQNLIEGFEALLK

On to `CC[C@H]1CN2CCc3cc(OC)c(OC)cc3[C@@H]2C[C@@H]1C[C@H]1NCCc2c1[nH]c1ccc(O)cc21` [tubulosine], for which the IC50 against TYK2 was found to be 76.3 nM; against JAK1 it was 69.5 nM; against JAK2 it was 84.9 nM. At JAK3 [1], this compound came in with a Ki of 12.9 ± 1.3 nM.
`CN[C@@H]1C[C@H]2O[C@@](C)([C@@H]1OC)n1c3ccccc3c3c4c(c5c6ccccc6n2c5c31)C(=O)NC4` [staurosporine]: on JAK3 [2], the “KinaseProfiler kinase assay, positive control” value was “Staurosporine was used as a positive control for ATP‐competitive inhibition of JAKs”.
As for `Nc1ncnc2c1ncn2[C@@H]1O[C@H](COP(=O)(O)OP(=O)(O)OP(=O)(O)O)[C@@H](O)[C@H]1O` [ATP], the Michaelis-Menten constant (Km) on JAK3 [3] turned out to be 212 ± 25.7 µM.
